According to PMC8379256, “A xanthene derivative, DS20060511, attenuates glucose intolerance by inducing skeletal muscle-specific GLUT4 translocation in mice” (Communications Biology, 2021):
“And” between values parts separate entries of the source, which are not always exact repeats. Equal entries are not always repeated.

System: C57BL/6 mice
Test: Indirect calorimetry and exercise endurance under stepwise treadmill running
Assay type: in vivo, mouse
Details: for Fat oxodation, sum over interval / Gluocse oxdation, sum over interval / Fat oxodation / Gluocse oxdation: individual mice 1-7
Protocol: The mice were acclimatized to the treadmill by allowing them to run at 10 m min^−1 for 10 min on the day before the test. On the day of the test, the mice received oral administration of 30 mg kg^−1 of DS20060511 or vehicle 15 min before they were made to run. The treadmill was started at a velocity of 10 m min^−1, with the speed increased stepwise by 2 m min^−1 every 3 min, to assess the exercise endurance capacity as described previously. Measurements of the oxygen consumption (VO2) and exhaled carbon dioxide (VCO2) under treadmill running were conducted with the ARCO-2000 magnetic-type mass spectrometric calorimeter (ARCO System, Kashiwa, Japan) connected to the treadmill chamber (MB-2000, ARCO System). The RER was calculated as the VCO2/VO2 ratio and the substrate utilization rates were calculated using Frayn’s formula[51]: rate of glucose oxidation = 4.585VCO2 − 3.226VO2; rate of fat oxidation = 1.695VO2 − 1.701VCO2. The exercise endurance capacity under treadmill running was determined by measuring the time from the start to the time until the mice ceased to run because of exhaustion, which was defined as remaining on the shocker plate for more than 10 sec. Immediately after the exercise, the blood glucose and lactate levels were measured using Glutest Every and Lactate Pro2 (ARKRAY, Kyoto, Japan), respectively, in blood samples collected from the tail vein.

[1] = 30 mg kg−1 po vs vehicle, treadmill running
[2] = DS20060511 30 mg/kg, 2 min, individual mice 1-7, Fig. 5a, 30 mg/kg
[3] = DS20060511 30 mg/kg, 3 min, individual mice 1-7, Fig. 5a, 30 mg/kg

Q: With `COc1ccc2c(C)c(C(=O)O)ccc2c1C1C2=C(CC(C)(C)CC2=O)OC2=C1C(=O)CC(C)(C)C2` [DS20060511] as the molecule, how does the “blood lactate levels after exercise” value (30 mg kg−1 po vs vehicle) read?
A: The value was “comparable between the two groups”.

Q: And the exercise endurance capacity (30 mg kg−1 po vs vehicle, stepwise treadmill)?
A: The exercise endurance capacity was “comparable between the two groups”.

Q: And the estimated glucose oxidation [1]?
A: The estimated glucose oxidation was “significantly higher”.

Q: And the fat oxidation [1]?
A: The fat oxidation was “significantly lower”.

Q: What about the “respiratory exchange ratio (RER)” value [1] of the same molecule?
A: The value was “relatively higher”.

Q: And the “blood glucose levels after exercise” value (30 mg kg−1 po, after treadmill running)?
A: The value was “decreased significantly after exercise”.

Q: What about the “Fat oxodation, sum over interval” value (30 mg/kg, 0-10 min) of the same molecule?
A: The value was 427.8 mg/min/kg and 293.6 mg/min/kg and 420.7 mg/min/kg and 305.9 mg/min/kg and 318.6 mg/min/kg and 347.3 mg/min/kg and 349.7 mg/min/kg.

Q: What about the “Gluocse oxdation, sum over interval” value (30 mg/kg, 0-10 min) of the same molecule?
A: Its value is 257.7 mg/min/kg and 558.0 mg/min/kg and 414.2 mg/min/kg and 313.5 mg/min/kg and 385.3 mg/min/kg and 424.4 mg/min/kg and 413.9 mg/min/kg.

Q: And the “Fat oxodation, sum over interval” value (30 mg/kg, 10-20 min)?
A: Its value is 395.5 mg/min/kg and 242.6 mg/min/kg and 385.0 mg/min/kg and 272.2 mg/min/kg and 293.7 mg/min/kg and 348.5 mg/min/kg and 252.4 mg/min/kg.

Q: What about the “Gluocse oxdation, sum over interval” value (30 mg/kg, 10-20 min) of the same molecule?
A: The value was 391.9 mg/min/kg and 729.7 mg/min/kg and 425.7 mg/min/kg and 359.9 mg/min/kg and 949.6 mg/min/kg and 631.1 mg/min/kg and 663.2 mg/min/kg.

Q: And the “Fat oxodation, sum over interval” value (30 mg/kg, 20-30 min)?
A: The value was 322.9 mg/min/kg and 234.0 mg/min/kg and 346.7 mg/min/kg and 272.4 mg/min/kg and 262.3 mg/min/kg and 313.5 mg/min/kg and 371.5 mg/min/kg.

Q: And the “Gluocse oxdation, sum over interval” value (30 mg/kg, 20-30 min)?
A: The value was 572.7 mg/min/kg and 770.3 mg/min/kg and 804.1 mg/min/kg and 468.4 mg/min/kg and 807.5 mg/min/kg and 860.4 mg/min/kg and 944.3 mg/min/kg.

Q: And the Fat oxodation (30 mg/kg, 2 min)?
A: The Fat oxodation was 49.1 mg/min/kg and 32.5 mg/min/kg and 45.5 mg/min/kg and 29.3 mg/min/kg and 25.5 mg/min/kg and 31.7 mg/min/kg and 38.3 mg/min/kg.

Q: And the Gluocse oxdation (30 mg/kg, 2 min)?
A: The Gluocse oxdation was 22.8 mg/min/kg and 54.5 mg/min/kg and 47.8 mg/min/kg and 35.8 mg/min/kg and 26.2 mg/min/kg and 31.5 mg/min/kg and 33.5 mg/min/kg.

Q: What about the Fat oxodation (30 mg/kg, 3 min) of the same molecule?
A: Its Fat oxodation is 47.1 mg/min/kg and 30.9 mg/min/kg and 42.8 mg/min/kg and 30.0 mg/min/kg (2×) and 34.1 mg/min/kg and 36.3 mg/min/kg.

Q: What about the Gluocse oxdation (30 mg/kg, 3 min) of the same molecule?
A: Its Gluocse oxdation is 23.3 mg/min/kg and 55.7 mg/min/kg and 37.4 mg/min/kg and 36.0 mg/min/kg and 29.4 mg/min/kg and 34.4 mg/min/kg and 37.0 mg/min/kg.

Q: And the Fat oxodation (30 mg/kg, 4 min)?
A: The Fat oxodation was 45.2 mg/min/kg and 28.8 mg/min/kg and 42.6 mg/min/kg and 34.0 mg/min/kg and 60.9 mg/min/kg and 33.7 mg/min/kg and 35.2 mg/min/kg.

Q: What about the Gluocse oxdation (30 mg/kg, 4 min) of the same molecule?
A: The Gluocse oxdation was 24.4 mg/min/kg and 56.1 mg/min/kg and 36.3 mg/min/kg and 34.1 mg/min/kg and 30.0 mg/min/kg and 35.7 mg/min/kg and 43.6 mg/min/kg.

Q: What about the Fat oxodation (30 mg/kg, 5 min) of the same molecule?
A: Its Fat oxodation is 42.0 mg/min/kg (2×) and 29.8 mg/min/kg and 30.0 mg/min/kg and 28.6 mg/min/kg and 36.6 mg/min/kg and 31.5 mg/min/kg.

Q: And the Gluocse oxdation (30 mg/kg, 5 min)?
A: Its Gluocse oxdation is 25.9 mg/min/kg and 58.5 mg/min/kg and 35.2 mg/min/kg and 29.7 mg/min/kg and 36.7 mg/min/kg and 43.4 mg/min/kg and 40.9 mg/min/kg.

Q: What about the Fat oxodation (30 mg/kg, 6 min) of the same molecule?
A: The Fat oxodation was 40.6 mg/min/kg and 28.1 mg/min/kg (2×) and 39.9 mg/min/kg and 29.8 mg/min/kg and 36.7 mg/min/kg and 34.9 mg/min/kg.

Q: What about the Gluocse oxdation (30 mg/kg, 6 min) of the same molecule?
A: The Gluocse oxdation was 27.6 mg/min/kg and 62.3 mg/min/kg and 41.7 mg/min/kg and 27.0 mg/min/kg and 29.5 mg/min/kg and 41.2 mg/min/kg and 41.6 mg/min/kg.

Q: And the Fat oxodation (30 mg/kg, 7 min)?
A: Its Fat oxodation is 44.6 mg/min/kg and 27.7 mg/min/kg and 40.8 mg/min/kg and 31.0 mg/min/kg and 29.7 mg/min/kg and 36.4 mg/min/kg and 33.0 mg/min/kg.

Q: And the Gluocse oxdation (30 mg/kg, 7 min)?
A: Its Gluocse oxdation is 25.8 mg/min/kg and 57.6 mg/min/kg and 41.7 mg/min/kg and 27.6 mg/min/kg and 31.8 mg/min/kg and 41.2 mg/min/kg and 41.5 mg/min/kg.

Q: What about the Fat oxodation (30 mg/kg, 8 min) of the same molecule?
A: The Fat oxodation was 40.5 mg/min/kg and 29.5 mg/min/kg and 42.0 mg/min/kg and 36.5 mg/min/kg and 31.2 mg/min/kg and 35.1 mg/min/kg and 53.1 mg/min/kg.

Q: And the Gluocse oxdation (30 mg/kg, 8 min)?
A: The Gluocse oxdation was 25.7 mg/min/kg and 46.1 mg/min/kg and 38.7 mg/min/kg and 30.3 mg/min/kg and 43.2 mg/min/kg and 42.8 mg/min/kg and 44.9 mg/min/kg.

Q: What about the Fat oxodation (30 mg/kg, 9 min) of the same molecule?
A: The Fat oxodation was 38.5 mg/min/kg (2×) and 26.8 mg/min/kg and 37.4 mg/min/kg and 31.8 mg/min/kg and 32.4 mg/min/kg and 27.0 mg/min/kg.

Q: What about the Gluocse oxdation (30 mg/kg, 9 min) of the same molecule?
A: The Gluocse oxdation was 33.9 mg/min/kg and 53.4 mg/min/kg and 38.5 mg/min/kg and 22.6 mg/min/kg and 54.7 mg/min/kg and 55.4 mg/min/kg and 48.5 mg/min/kg.

Q: And the Fat oxodation (30 mg/kg, 10 min)?
A: The Fat oxodation was 34.8 mg/min/kg and 27.2 mg/min/kg and 41.0 mg/min/kg and 29.8 mg/min/kg and 30.4 mg/min/kg and 34.2 mg/min/kg and 23.3 mg/min/kg.

Q: And the Gluocse oxdation (30 mg/kg, 10 min)?
A: The Gluocse oxdation was 30.0 mg/min/kg and 56.7 mg/min/kg and 39.2 mg/min/kg and 35.9 mg/min/kg and 69.2 mg/min/kg and 58.5 mg/min/kg and 43.5 mg/min/kg.

Q: And the Fat oxodation (30 mg/kg, 11 min)?
A: The Fat oxodation was 31.8 mg/min/kg and 26.7 mg/min/kg and 43.5 mg/min/kg and 30.9 mg/min/kg and 23.0 mg/min/kg and 34.9 mg/min/kg and 24.3 mg/min/kg.

Q: And the Gluocse oxdation (30 mg/kg, 11 min)?
A: Its Gluocse oxdation is 26.2 mg/min/kg and 54.7 mg/min/kg and 51.9 mg/min/kg and 29.4 mg/min/kg and 70.2 mg/min/kg and 68.8 mg/min/kg and 48.6 mg/min/kg.

Q: What about the Fat oxodation (30 mg/kg, 12 min) of the same molecule?
A: Its Fat oxodation is 38.6 mg/min/kg and 27.7 mg/min/kg and 39.9 mg/min/kg and 32.1 mg/min/kg and 28.8 mg/min/kg and 35.4 mg/min/kg and 26.2 mg/min/kg.

Q: And the Gluocse oxdation (30 mg/kg, 12 min)?
A: Its Gluocse oxdation is 31.9 mg/min/kg and 64.6 mg/min/kg and 37.7 mg/min/kg and 26.9 mg/min/kg and 70.4 mg/min/kg and 57.6 mg/min/kg and 47.4 mg/min/kg.

Q: And the Fat oxodation (30 mg/kg, 13 min)?
A: Its Fat oxodation is 43.1 mg/min/kg and 20.9 mg/min/kg and 41.6 mg/min/kg and 25.9 mg/min/kg and 29.8 mg/min/kg and 35.1 mg/min/kg and 26.2 mg/min/kg.

Q: What about the Gluocse oxdation (30 mg/kg, 13 min) of the same molecule?
A: Its Gluocse oxdation is 26.0 mg/min/kg and 67.8 mg/min/kg and 36.1 mg/min/kg and 27.0 mg/min/kg and 75.8 mg/min/kg and 55.4 mg/min/kg and 71.1 mg/min/kg.

Q: What about the Fat oxodation (30 mg/kg, 14 min) of the same molecule?
A: The Fat oxodation was 40.8 mg/min/kg and 24.1 mg/min/kg and 37.9 mg/min/kg and 28.8 mg/min/kg and 31.7 mg/min/kg and 36.1 mg/min/kg and 24.4 mg/min/kg.

Q: What about the Gluocse oxdation (30 mg/kg, 14 min) of the same molecule?
A: The Gluocse oxdation was 35.1 mg/min/kg and 58.5 mg/min/kg and 33.2 mg/min/kg and 25.3 mg/min/kg and 81.8 mg/min/kg and 57.9 mg/min/kg and 62.6 mg/min/kg.

Q: And the Fat oxodation (30 mg/kg, 15 min)?
A: The Fat oxodation was 37.9 mg/min/kg and 23.3 mg/min/kg and 38.6 mg/min/kg and 27.4 mg/min/kg and 30.7 mg/min/kg and 40.7 mg/min/kg and 24.3 mg/min/kg.

Q: What about the Gluocse oxdation (30 mg/kg, 15 min) of the same molecule?
A: The Gluocse oxdation was 36.9 mg/min/kg and 60.6 mg/min/kg and 34.7 mg/min/kg and 16.1 mg/min/kg and 95.7 mg/min/kg and 52.2 mg/min/kg and 66.3 mg/min/kg.

Q: And the Fat oxodation (30 mg/kg, 16 min)?
A: Its Fat oxodation is 43.4 mg/min/kg and 24.7 mg/min/kg.

Q: And the Gluocse oxdation (30 mg/kg, 16 min)?
A: Its Gluocse oxdation is 35.4 mg/min/kg and 77.5 mg/min/kg.

Q: What about the “CO2 Production (VCO2)” value [2] of the same molecule?
A: Its value is 92.8 mL/min/kg and 70.8 mL/min/kg and 81.2 mL/min/kg and 81.9 mL/min/kg and 71.5 mL/min/kg and 71.3 mL/min/kg and 73.6 mL/min/kg.

Q: What about the “O2 Consumption (VO2)” value [2] of the same molecule?
A: Its value is 108.3 ml/min/kg and 99.5 ml/min/kg and 86.9 ml/min/kg and 90.3 ml/min/kg (2×) and 96.4 ml/min/kg and 122.1 ml/min/kg.

Q: And the Respiratory quotient [2]?
A: The Respiratory quotient was 0.76 (2×) and 0.78 and 0.75 and 0.82 (2×) and 0.79.

Q: What about the “CO2 Production (VCO2)” value [3] of the same molecule?
A: The value was 92.0 mL/min/kg and 71.1 mL/min/kg and 77.7 mL/min/kg and 83.7 mL/min/kg and 70.1 mL/min/kg and 74.8 mL/min/kg and 73.0 mL/min/kg.

Q: What about the “O2 Consumption (VO2)” value [3] of the same molecule?
A: Its value is 103.2 mL/min/kg and 101.7 mL/min/kg and 88.1 mL/min/kg and 95.2 mL/min/kg and 94.7 mL/min/kg and 120.2 mL/min/kg and 89.5 mL/min/kg.
